Data published in the NIST ThermoML archive (doi:10.1016/j.jct.2005.12.006).
Values joined by “and” are separate entries in the source; they are usually repeats but may differ in a detail not shown here. Equal values may be shown once. Numbers after ± are expanded uncertainties.

Assay: excess molar enthalpy (molar enthalpy of mixing); xn = mol fraction of the nth substance listed
Settings: 298.15 K, 101 kPa, Liquid, Flow calorimetry

## CCCCN(CCCC)CCCC [tributylamine] + CCCCO
x2 = 0.0505
  excess molar enthalpy: 0.0382 ± 0.0022 kJ/mol
x2 = 0.1006
  excess molar enthalpy: 0.0435 ± 0.0022 kJ/mol
x2 = 0.1507
  excess molar enthalpy: 0.0271 ± 0.0022 kJ/mol
x2 = 0.2009
  excess molar enthalpy: 0.0048 ± 0.0021 kJ/mol
x2 = 0.2511
  excess molar enthalpy: -0.024 ± 0.0022 kJ/mol
x2 = 0.3013
  excess molar enthalpy: -0.0472 ± 0.0023 kJ/mol
x2 = 0.3519
  excess molar enthalpy: -0.0757 ± 0.0026 kJ/mol
x2 = 0.4018
  excess molar enthalpy: -0.1 ± 0.0033 kJ/mol
x2 = 0.4514
  excess molar enthalpy: -0.126 ± 0.0041 kJ/mol
x2 = 0.5014
  excess molar enthalpy: -0.147 ± 0.0048 kJ/mol
x2 = 0.5513
  excess molar enthalpy: -0.168 ± 0.0054 kJ/mol
x2 = 0.6014
  excess molar enthalpy: -0.183 ± 0.0059 kJ/mol
x2 = 0.6512
  excess molar enthalpy: -0.197 ± 0.0063 kJ/mol
x2 = 0.7011
  excess molar enthalpy: -0.205 ± 0.0065 kJ/mol
x2 = 0.7517
  excess molar enthalpy: -0.208 ± 0.0066 kJ/mol
x2 = 0.8013
  excess molar enthalpy: -0.206 ± 0.0065 kJ/mol
x2 = 0.8514
  excess molar enthalpy: -0.195 ± 0.0062 kJ/mol
x2 = 0.9004
  excess molar enthalpy: -0.169 ± 0.0054 kJ/mol
x2 = 0.9503
  excess molar enthalpy: -0.115 ± 0.0038 kJ/mol
x2 = 0.9698
  excess molar enthalpy: -0.0762 ± 0.0027 kJ/mol
x2 = 0.9853
  excess molar enthalpy: -0.023 ± 0.0023 kJ/mol

## CCCCN(CCCC)CCCC [tributylamine] + CCCCCC
x1 = 0.05
  excess molar enthalpy: -0.0047 ± 0.0021 kJ/mol
x1 = 0.0995
  excess molar enthalpy: -0.0076 ± 0.0021 kJ/mol
x1 = 0.1495
  excess molar enthalpy: -0.0092 ± 0.0021 kJ/mol
x1 = 0.1997
  excess molar enthalpy: -0.0092 ± 0.0021 kJ/mol
x1 = 0.2498
  excess molar enthalpy: -0.0088 ± 0.0021 kJ/mol
x1 = 0.2992
  excess molar enthalpy: -0.0079 ± 0.0021 kJ/mol
x1 = 0.3498
  excess molar enthalpy: -0.007 ± 0.0021 kJ/mol
x1 = 0.3991
  excess molar enthalpy: -0.006 ± 0.0021 kJ/mol
x1 = 0.449
  excess molar enthalpy: -0.0051 ± 0.0021 kJ/mol
x1 = 0.4993
  excess molar enthalpy: -0.0043 ± 0.0021 kJ/mol
x1 = 0.5488
  excess molar enthalpy: -0.0035 ± 0.0021 kJ/mol
x1 = 0.599
  excess molar enthalpy: -0.0027 ± 0.0021 kJ/mol
x1 = 0.6492
  excess molar enthalpy: -0.0021 ± 0.0021 kJ/mol
x1 = 0.6989
  excess molar enthalpy: -0.0016 ± 0.0021 kJ/mol
x1 = 0.7495
  excess molar enthalpy: -0.0013 ± 0.0021 kJ/mol
x1 = 0.7991
  excess molar enthalpy: -0.001 ± 0.0021 kJ/mol
x1 = 0.8497
  excess molar enthalpy: -0.0008 ± 0.0021 kJ/mol
x1 = 0.9
  excess molar enthalpy: -0.0006 ± 0.0021 kJ/mol
x1 = 0.9501
  excess molar enthalpy: -0.0004 ± 0.0021 kJ/mol

## CCCCCCCCN(CCCCCCCC)CCCCCCCC [trioctylamine] + CCCCO
x2 = 0.0623
  excess molar enthalpy: 0.16 ± 0.0052 kJ/mol
x2 = 0.1246
  excess molar enthalpy: 0.222 ± 0.007 kJ/mol
x2 = 0.1877
  excess molar enthalpy: 0.258 ± 0.0082 kJ/mol
x2 = 0.2503
  excess molar enthalpy: 0.279 ± 0.0088 kJ/mol
x2 = 0.3122
  excess molar enthalpy: 0.288 ± 0.0091 kJ/mol
x2 = 0.3747
  excess molar enthalpy: 0.291 ± 0.0092 kJ/mol
x2 = 0.4373
  excess molar enthalpy: 0.285 ± 0.009 kJ/mol
x2 = 0.5
  excess molar enthalpy: 0.272 ± 0.0086 kJ/mol
x2 = 0.5625
  excess molar enthalpy: 0.257 ± 0.0081 kJ/mol
x2 = 0.6251
  excess molar enthalpy: 0.234 ± 0.0074 kJ/mol
x2 = 0.6876
  excess molar enthalpy: 0.196 ± 0.0062 kJ/mol
x2 = 0.7501
  excess molar enthalpy: 0.148 ± 0.0048 kJ/mol
x2 = 0.8125
  excess molar enthalpy: 0.101 ± 0.0033 kJ/mol
x2 = 0.875
  excess molar enthalpy: 0.0636 kJ/mol and 0.0627 kJ/mol
x2 = 0.9375
  excess molar enthalpy: 0.0256 ± 0.0022 kJ/mol

## CCCCCC [hexane] + CCCCO
x2 = 0.2065
  excess molar enthalpy: 0.537 ± 0.017 kJ/mol
x2 = 0.2516
  excess molar enthalpy: 0.539 ± 0.017 kJ/mol
x2 = 0.405
  excess molar enthalpy: 0.555 ± 0.017 kJ/mol
x2 = 0.5028
  excess molar enthalpy: 0.503 ± 0.016 kJ/mol
x2 = 0.6056
  excess molar enthalpy: 0.44 ± 0.014 kJ/mol
x2 = 0.7505
  excess molar enthalpy: 0.275 ± 0.0087 kJ/mol
x2 = 0.8055
  excess molar enthalpy: 0.218 ± 0.0069 kJ/mol

## CCCCCCCCN(CCCCCCCC)CCCCCCCC [trioctylamine] + CCCCCC
x1 = 0.0312
  excess molar enthalpy: -0.0048 kJ/mol and -0.0049 kJ/mol and -0.005 kJ/mol
x1 = 0.0625
  excess molar enthalpy: -0.0088 kJ/mol and -0.0091 kJ/mol and -0.0087 kJ/mol
x1 = 0.0938
  excess molar enthalpy: -0.0104 ± 0.0021 kJ/mol
x1 = 0.125
  excess molar enthalpy: -0.0123 kJ/mol and -0.0116 kJ/mol
x1 = 0.1875
  excess molar enthalpy: -0.0126 kJ/mol and -0.0129 kJ/mol
x1 = 0.25
  excess molar enthalpy: -0.011 kJ/mol and -0.0106 kJ/mol
x1 = 0.3125
  excess molar enthalpy: -0.0089 ± 0.0021 kJ/mol
x1 = 0.375
  excess molar enthalpy: -0.0075 ± 0.0021 kJ/mol
x1 = 0.4375
  excess molar enthalpy: -0.0065 ± 0.0021 kJ/mol
x1 = 0.4999
  excess molar enthalpy: -0.0053 ± 0.0021 kJ/mol
x1 = 0.5625
  excess molar enthalpy: -0.0041 ± 0.0021 kJ/mol
x1 = 0.6249
  excess molar enthalpy: -0.0028 ± 0.0021 kJ/mol
x1 = 0.625
  excess molar enthalpy: -0.0029 ± 0.0021 kJ/mol
x1 = 0.6873
  excess molar enthalpy: -0.0022 ± 0.0021 kJ/mol
x1 = 0.75
  excess molar enthalpy: -0.0017 ± 0.0021 kJ/mol
x1 = 0.8124
  excess molar enthalpy: -0.0009 kJ/mol and -0.0007 kJ/mol
x1 = 0.8749
  excess molar enthalpy: -0.0004 ± 0.0021 kJ/mol
x1 = 0.875
  excess molar enthalpy: -0.0001 kJ/mol
x1 = 0.9374
  excess molar enthalpy: -0.0002 kJ/mol
